According to the NIST ThermoML archive (doi:10.1021/je060355j):

Experiments:
[1] = xn = mol fraction of the nth substance listed; settings: 101.32 kPa, Liquid
[2] = excess molar enthalpy (molar enthalpy of mixing); xn = mol fraction of the nth substance listed; settings: 101.32 kPa, Liquid

CCCCOC=O [butyl methanoate] + CCCCCC
Settings | excess molar enthalpy [kcal/mol] | mass density [kg/m3]
[1], 291.15 K, x1 = 0.0445 | – | 669.6
[1], 291.15 K, x1 = 0.09 | – | 678.6
[1], 291.15 K, x1 = 0.1461 | – | 689.8
[1], 291.15 K, x1 = 0.1928 | – | 699.5
[1], 291.15 K, x1 = 0.249 | – | 711.4
[1], 291.15 K, x1 = 0.3018 | – | 722.7
[1], 291.15 K, x1 = 0.4025 | – | 745.2
[1], 291.15 K, x1 = 0.5021 | – | 768.3
[1], 291.15 K, x1 = 0.5957 | – | 790.7
[1], 291.15 K, x1 = 0.6963 | – | 815.7
[1], 291.15 K, x1 = 0.7541 | – | 830.4
[1], 291.15 K, x1 = 0.802 | – | 842.7
[1], 291.15 K, x1 = 0.8532 | – | 856.1
[1], 291.15 K, x1 = 0.8987 | – | 868.2
[1], 291.15 K, x1 = 0.9575 | – | 884.3
[1], 291.15 K, x1 = 1 | – | 896
[1], 298.15 K, x1 = 0.0729 | – | 669.39
[1], 298.15 K, x1 = 0.1321 | – | 681.03
[1], 298.15 K, x1 = 0.1967 | – | 694.2
[1], 298.15 K, x1 = 0.2658 | – | 708.76
[1], 298.15 K, x1 = 0.336 | – | 723.94
[1], 298.15 K, x1 = 0.3698 | – | 731.4
[1], 298.15 K, x1 = 0.4886 | – | 758.31
[1], 298.15 K, x1 = 0.5876 | – | 781.81
[1], 298.15 K, x1 = 0.6855 | – | 805.81
[1], 298.15 K, x1 = 0.7677 | – | 826.55
[1], 298.15 K, x1 = 0.8136 | – | 838.26
[1], 298.15 K, x1 = 0.8574 | – | 849.77
[1], 298.15 K, x1 = 0.8986 | – | 860.63
[1], 298.15 K, x1 = 0.9227 | – | 867.09
[1], 298.15 K, x1 = 0.9714 | – | 880.08
[1], 298.15 K, x1 = 1 | – | 888.66
[1], 308.15 K, x1 = 0.047 | – | 654.6
[1], 308.15 K, x1 = 0.1095 | – | 666.7
[1], 308.15 K, x1 = 0.1485 | – | 674.6
[1], 308.15 K, x1 = 0.2005 | – | 685.2
[1], 308.15 K, x1 = 0.2579 | – | 697.2
[1], 308.15 K, x1 = 0.2981 | – | 705.7
[1], 308.15 K, x1 = 0.4033 | – | 728.8
[1], 308.15 K, x1 = 0.5098 | – | 753.1
[1], 308.15 K, x1 = 0.6081 | – | 776.4
[1], 308.15 K, x1 = 0.7112 | – | 801.8
[1], 308.15 K, x1 = 0.7576 | – | 813.5
[1], 308.15 K, x1 = 0.8073 | – | 826.3
[1], 308.15 K, x1 = 0.8511 | – | 837.7
[1], 308.15 K, x1 = 0.9081 | – | 852.9
[1], 308.15 K, x1 = 0.9598 | – | 867.3
[1], 308.15 K, x1 = 1 | – | 878.24
[1], 318.15 K, x1 = 0.0493 | – | 645.6
[1], 318.15 K, x1 = 0.0857 | – | 652.7
[1], 318.15 K, x1 = 0.1192 | – | 659.1
[1], 318.15 K, x1 = 0.1589 | – | 666.9
[1], 318.15 K, x1 = 0.1975 | – | 674.7
[1], 318.15 K, x1 = 0.2452 | – | 684.5
[1], 318.15 K, x1 = 0.3006 | – | 696.2
[1], 318.15 K, x1 = 0.4015 | – | 718
[1], 318.15 K, x1 = 0.495 | – | 739.2
[1], 318.15 K, x1 = 0.5929 | – | 762.2
[1], 318.15 K, x1 = 0.705 | – | 789.5
[1], 318.15 K, x1 = 0.746 | – | 799.7
[1], 318.15 K, x1 = 0.8134 | – | 817.05
[1], 318.15 K, x1 = 0.9067 | – | 841.5
[1], 318.15 K, x1 = 0.9647 | – | 857.1
[1], 318.15 K, x1 = 1 | – | 867.21
[2], 291.15 K, x1 = 0.0865 | 0.0769 | –
[2], 291.15 K, x1 = 0.1588 | 0.134 | –
[2], 291.15 K, x1 = 0.2303 | 0.183 | –
[2], 291.15 K, x1 = 0.2973 | 0.216 | –
[2], 291.15 K, x1 = 0.3551 | 0.237 | –
[2], 291.15 K, x1 = 0.4081 | 0.248 | –
[2], 291.15 K, x1 = 0.454 | 0.253 | –
[2], 291.15 K, x1 = 0.5114 | 0.251 | –
[2], 291.15 K, x1 = 0.5606 | 0.243 | –
[2], 291.15 K, x1 = 0.6177 | 0.228 | –
[2], 291.15 K, x1 = 0.6775 | 0.205 | –
[2], 291.15 K, x1 = 0.7406 | 0.176 | –
[2], 291.15 K, x1 = 0.8067 | 0.14 | –
[2], 291.15 K, x1 = 0.873 | 0.0959 | –
[2], 291.15 K, x1 = 0.94 | 0.0509 | –
[2], 318.15 K, x1 = 0.0808 | 0.105 | –
[2], 318.15 K, x1 = 0.1626 | 0.168 | –
[2], 318.15 K, x1 = 0.2415 | 0.217 | –
[2], 318.15 K, x1 = 0.311 | 0.248 | –
[2], 318.15 K, x1 = 0.3823 | 0.268 | –
[2], 318.15 K, x1 = 0.4464 | 0.275 | –
[2], 318.15 K, x1 = 0.4882 | 0.274 | –
[2], 318.15 K, x1 = 0.5104 | 0.275 | –
[2], 318.15 K, x1 = 0.5661 | 0.266 | –
[2], 318.15 K, x1 = 0.63 | 0.25 | –
[2], 318.15 K, x1 = 0.7075 | 0.219 | –
[2], 318.15 K, x1 = 0.7904 | 0.175 | –
[2], 318.15 K, x1 = 0.868 | 0.121 | –
[2], 318.15 K, x1 = 0.9412 | 0.0645 | –
